What was measured:
[1] = tested on: solid tumors; details: NCT02719977, solid tumors in humans; cited from earlier work
[2] = molecular target: hERG (Homo sapiens, UniProt Q12809); test: hERG cardiotoxicity assay (patch clamp, hERG stably expressed HEK 293 cell line); type: cell-based; details: 5 doses applied cumulatively
Procedure: • 1) The hERG stably expressed HEK 293 cell line (Cat# K1236) was purchased from Invitrogen. Cells were cultured in a medium consisting of 85% DMEM, 10% FBS, 0.1 mM NEAA, 25 mM HEPES, 100 U/mL penicillin-streptomycin, 5 µg/mL Blasticidin, and 400 µg/mL Geneticin. Cells were passaged approximately three times a week using TrypLE™ Express and maintained at ~40% to ~80% confluency. Before assay, cells were placed on coverslips with 5×10^5 cells per 6-cm cell culture dish and induced with 1 µg/mL doxycycline for 48 hours. • 2) The coverslip was removed from the cell culture dish and placed on the microscope stage. A suitable cell was located using a 10× objective. The tip of the electrode was located under the microscope using the 10× objective, and the focus was adjusted to the plane of the cell. Once the tip was in focus, the coarse control of the manipulator was used to advance the electrode downward toward the cell while moving the objective to keep the tip in focus. When directly above the cell, the objective was switched to 40× objective, and the fine control of the manipulator was used to approach the cell surface in small steps. • 3) A blank control was first performed to establish a baseline. […] In the presence of the test compounds, the hERG current was recorded for approximately 5 minutes to reach a steady state, followed by capturing 5 scans. For dose-response testing, 5 doses of the test compounds were cumulatively applied to the cells from low to high concentrations. The positive control, dofetilide at a concentration of 150 nM, was applied to each cell, and the hERG current was measured in the test compounds at the highest concentration as a negative control to normalize the percentage of inhibition. To ensure good performance of the cultured cells and operations, cells from the same batch were also tested with 5 doses of dofetilide. Table 4. hERG Toxicity Assay Results

[3] = tested on: MDA-MB-436; test: Cell activity assay (CellTiterGlo, 6 days), BRCA1 gene-deficient MDA-MB-436 cells; type: cell-based; details: Homo sapiens, 144 h, BRCA1 gene-deficient MDA-MB-436, 6 days incubation
Procedure: (§1) • (1) Compound Treatment • a) Preparation of Stock Solutions of Compounds Test compounds were dissolved in DMSO at a concentration of 10 mM or 5 mM, and Olaparib was dissolved in DMSO at a concentration of 10 mM. • b) Compound Storage All compounds dissolved in DMSO were stored in a desiccator at room temperature for short-term storage and transferred to a -20°C refrigerator for long-term storage. • c) Preparation of Working Concentrations of Compounds
(§2) Test compounds were serially diluted in DMSO at a 3-fold gradient to prepare 10 concentration gradients, starting from 10 µM.
(§3) Olaparib was serially diluted in DMSO at a 3-fold gradient to prepare 10 concentration gradients, starting from 10 µM.
(§4) The 384-well plate loaded with the compounds was centrifuged at 1000 rpm for 1 minute.
(§5) • a) Cells were added to the culture medium and incubated in a cell culture incubator at 37°C with 5% CO2. • b) 40 µL of BRCA1- or BRCA2-deficient cells were added to a 384-well plate and incubated overnight at 37°C with 5% CO2. • c) The test compounds were prepared at different concentration gradients on the master plate, and 80 nL of the test compounds and Olaparib were taken from the master plate and added to the 384-well plate containing cells, and incubated at 37°C with 5% CO2 for 6 days. • d) CellTiterGlo (30 µL per well) was added to the 384-well plate, and after incubation at room temperature in the dark for 30 minutes, measurement was performed using an Envision plate reader.
(§6) • a) GraphPad Prism software was used to calculate the ICso and plot the activity curves as a function of concentration. • b) The inhibition of cell activity by the compounds was calculated using the following formula: % Inhibition = [1−(Cmpd−Blank)/(DMSO−Blank)]* 100 [formula]

[4] = tested on: UWB1.289 Cells; test: Cell activity assay (CellTiterGlo, 6 days), BRCA1 gene-deficient ovarian cancer cells UWB1.289; type: cell-based; details: UWB1289, 144 h, BRCA1 gene-deficient ovarian cancer cells UWB1.289, 6 days incubation
Procedure: as §1, §2, §3, §4, §5, §6

[5] = tested on: DLD1 BRCA2^-/-; test: Cell activity assay (CellTiterGlo, 6 days), BRCA2 gene knockout DLD1 cancer cells; type: cell-based; details: Homo sapiens, DLD-1, 144 h, 6 days incubation
Procedure: as §1, §2, §3, §4, §5, §6

Sequence of hERG (Q12809 whole entry): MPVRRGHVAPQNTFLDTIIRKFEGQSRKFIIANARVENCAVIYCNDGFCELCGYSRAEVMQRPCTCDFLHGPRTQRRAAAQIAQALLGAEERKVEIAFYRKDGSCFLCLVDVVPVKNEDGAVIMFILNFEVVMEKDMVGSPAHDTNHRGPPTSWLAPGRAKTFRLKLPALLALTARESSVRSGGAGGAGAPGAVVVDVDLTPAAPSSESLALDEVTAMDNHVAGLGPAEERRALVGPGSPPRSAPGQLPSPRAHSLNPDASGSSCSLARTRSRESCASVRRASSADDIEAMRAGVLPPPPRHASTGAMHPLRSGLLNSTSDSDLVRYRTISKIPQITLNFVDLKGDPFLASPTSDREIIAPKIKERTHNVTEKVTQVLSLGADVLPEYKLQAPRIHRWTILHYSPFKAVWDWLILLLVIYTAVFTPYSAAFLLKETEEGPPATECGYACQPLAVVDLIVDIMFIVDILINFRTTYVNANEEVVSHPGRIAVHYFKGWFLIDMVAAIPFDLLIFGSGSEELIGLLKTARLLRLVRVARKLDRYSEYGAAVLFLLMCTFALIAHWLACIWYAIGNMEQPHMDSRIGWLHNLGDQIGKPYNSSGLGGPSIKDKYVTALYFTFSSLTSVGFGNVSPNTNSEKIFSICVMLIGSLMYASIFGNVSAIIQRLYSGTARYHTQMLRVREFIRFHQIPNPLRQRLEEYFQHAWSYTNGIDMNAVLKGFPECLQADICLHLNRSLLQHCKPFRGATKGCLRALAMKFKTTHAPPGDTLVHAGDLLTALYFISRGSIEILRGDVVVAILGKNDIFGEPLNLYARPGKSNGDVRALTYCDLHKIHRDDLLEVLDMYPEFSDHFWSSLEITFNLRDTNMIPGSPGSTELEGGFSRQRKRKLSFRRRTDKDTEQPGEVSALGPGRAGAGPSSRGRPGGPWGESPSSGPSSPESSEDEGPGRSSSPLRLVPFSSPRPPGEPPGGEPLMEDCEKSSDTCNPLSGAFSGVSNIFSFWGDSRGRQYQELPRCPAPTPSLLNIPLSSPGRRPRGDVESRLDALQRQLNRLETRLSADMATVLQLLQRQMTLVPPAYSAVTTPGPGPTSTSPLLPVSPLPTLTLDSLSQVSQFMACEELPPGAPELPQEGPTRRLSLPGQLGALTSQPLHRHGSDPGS

IC50 [3] [nM] | IC50 [4] [nM] | IC50 [5] [nM] | SMILES | adverse effects observed [1] | IC50 [2] [nM]
10 |  |  | Cc1cnc(CNC(=O)c2c(=O)c3ccc(N4CCCN(C)CC4)nc3n3c2sc2ccccc23)cn1 [CX-5461] | phototoxicity, neutropenia, acral erythema, and nausea | 5060
 | 4.9 | 4.8 | CN1CCCN(c2ccc3c(=O)c(C(=O)NCCN4CCC4)c4sc5ccccc5n4c3n2)CC1 [Compound C] |  | 
 | 5.8 | 4.3 | CN1CCCN(c2ccc3c(=O)c(C(=O)NCCN4CCCC4)c4sc5ccccc5n4c3n2)CC1 [Compound D] |  | 
7.7 | 39.8 | 11 | CNC(=O)c1c(=O)c2ccc(N3CCCN(C)CC3)nc2n2c1sc1ccccc12 [Compound E] |  | 
 | 40.6 | 17.2 | CN1CCCN(c2ccc3c(=O)c(C(=O)NC4CC4)c4sc5ccccc5n4c3n2)CC1 [Compound F] |  | 
 | 40.4 | 32.7 | CN1CCCN(c2ccc3c(=O)c(C(=O)NCc4ccc(=O)[nH]n4)c4sc5ccccc5n4c3n2)CC1 [Compound G-1] |  | > 30000
 |  |  | CN1CCCN(c2ccc3c(=O)c(C(=O)NCc4n[nH]c(=O)c5ccccc45)c4sc5ccccc5n4c3n2)CC1 [Compound G-2] |  | > 10000
240 | 716 |  | O=C(c1cc(Cc2n[nH]c(=O)c3ccccc23)ccc1F)N1CCN(C(=O)C2CC2)CC1 [Olaparib, reference compound] |  | 

— patent publication EP4703365A1, “QUINOLONE DERIVATIVE AND USE THEREOF AGAINST TUMORS” (Horizon Omics Biotech Limited, priority 2023, dated 2024)
